Common to all, as to assay: NCI-60 cell line screen, 48 h
For test [1], the system named is A498.
The subject of test [2] is A549.
In test [3] the test system is CCRF-CEM.
The test system of test [4] is DU-145.
Test [5] has as its system HL-60.
Test [6] deals with HOP-92.
Test [7] relates to MDA-MB-231.
The test system of test [8] is MDA-MB-435.
For test [9], the system named is NCI/ADR-RES.
Test [10] deals with OVCAR-3.
The subject of test [11] is RPMI-8226.
For test [12], the system named is RXF 393.
In test [13] the test system is SK-MEL-2.
The subject of test [14] is SNB-19.
Test [15] concerns SR.
Test [16] concerns SW-620.
Test [17] relates to T47D.
In test [18] the test system is TK-10.
For test [19], the system named is UACC-257.
Test [20] has as its system UACC-62.

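In this assay, cells in 96-well plates receive the compound at five concentrations for 48 hours. Endpoints are linearly interpolated between the surrounding concentrations. At the GI50, growth is halved.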 Calls of active or inactive are those of the source. Cut-off read from the data, not from the text of the source: active = GI50 up to about 1.1 µM and inactive = higher.

`CN(C)CCNC(=O)c1cccc2[nH]c(-c3ccncc3)nc12`: the GI50 in [1] is 4.05 µM (inactive); in test [2] it was 5.78 µM (inactive); in test [3] it was 2.29 µM (inactive); in [4] it was 7.76 µM (inactive); in [5], 1.01 µM (active); in test [6], 6.82 µM (inactive). Besides, the GI50 is 3.24 µM (inactive) in test [7]; 1.84 µM (inactive) in test [8]; 13.2 µM (inactive) in [9]; 9.62 µM (inactive) in test [10]; 3 µM (inactive) in test [11]; 5.58 µM (inactive) in test [12]. The GI50 in test [13] was 4.28 µM (inactive); in [14], 10.7 µM (inactive); in test [15], 3.38 µM (inactive); in test [16] it was 3.19 µM (inactive); in test [17], 12.7 µM (inactive); in [18], 6.5 µM (inactive). The GI50 is 1.83 µM (inactive) in test [19] and 2.96 µM (inactive) in test [20].
In the case of `c1ccc(C2=NCCN2)c(C2=NCCN2)c1`, the GI50 in [1], in test [2], in test [3], in [4], in test [5] and in test [6] was > 100 µM (inactive) throughout. Moreover, the GI50 in test [7], in [8], in test [9], in test [10], in test [11] and in test [12] was > 100 µM (inactive) throughout. Besides, the GI50 in test [13], in [14], in [15], in [16], in [17] and in [18] was > 100 µM (inactive) in each case. Moreover, the GI50 in test [19] and in test [20] was > 100 µM (inactive) throughout.
Take `CCC1=C(CC2NCCc3cc(OC)c(OC)cc32)CC2c3ccccc3CCN2C1` (stereo not given): the GI50 in test [1] is 13.2 µM (inactive); in test [2], 26.4 µM (inactive); in [3], 10.4 µM (inactive); in [4] it was 38.5 µM (inactive); in test [5], 9.06 µM (inactive); in test [6], 12.8 µM (inactive). Moreover, the GI50 in test [7] was 16.8 µM (inactive); in test [8] it was 13.1 µM (inactive); in test [9], 29.6 µM (inactive); in test [10], 33.4 µM (inactive); in test [11], 13.8 µM (inactive); in test [12], 19.8 µM (inactive). The GI50 is 15.8 µM (inactive) in test [13]; 36.9 µM (inactive) in [14]; 10.1 µM (inactive) in test [15]; 13.8 µM (inactive) in [16]; 20.7 µM (inactive) in [17]; 26.7 µM (inactive) in test [18]. The GI50 in test [19] is 18.1 µM (inactive); in [20] it was 15.5 µM (inactive).
Turning to `O=S(=O)(CC(O)C(Cl)(Cl)Cl)NNc1ccccc1` (stereo not given), the GI50 in [1] is > 100 µM (inactive); in test [2], > 100 µM (inactive); in [3], > 100 µM (inactive); in test [4], > 100 µM (inactive); in test [5] it was 47.6 µM (inactive); in test [6] it was > 100 µM (inactive). Further, the GI50 in test [7], in [8], in [9], in [10], in test [11] and in test [12] was > 100 µM (inactive) in each case. Moreover, the GI50 was > 100 µM (inactive) in test [13]; > 100 µM (inactive) in test [14]; > 100 µM (inactive) in test [15]; > 100 µM (inactive) in test [16]; 81.5 µM (inactive) in test [17]; > 100 µM (inactive) in [18]. For the same molecule, the GI50 is > 100 µM (inactive) in test [19] and 20.7 µM (inactive) in test [20].
Turning to `CN(C)CCNc1ccc2nnn3c4ccc(O)cc4c(=O)c1c23`, the GI50 in test [1] was 3.71 µM (inactive); in test [2], 0.598 µM (active); in [3], 1.11 µM (active); in [4], 6.31 µM (inactive); in test [5] it was 1.71 µM (inactive); in [6], 4.59 µM (inactive). Besides, the GI50 in [7] was 0.273 µM (active); in [8], 4.07 µM (inactive); in [9] it was 1.81 µM (inactive); in [10], 5.73 µM (inactive); in test [11], 2.06 µM (inactive); in test [12], 1.68 µM (inactive). The GI50 in test [13] was 9.79 µM (inactive); in test [14], 7.89 µM (inactive); in test [15], 0.18 µM (active); in [16], 1.09 µM (active); in test [17], 11.1 µM (inactive); in test [18] it was 5.12 µM (inactive). For the same molecule, the results for the GI50 in test [19] and in [20] were 9.71 µM (inactive) and 4.74 µM (inactive), respectively.
On to `O=C(CCBr)N1CCN(C(=O)CCBr)CC1` [PIPOBROMAN], for which the GI50 was 80.7 µM (inactive) in test [1]; 43.9 µM (inactive) in test [2]; 15.1 µM (inactive) in [3]; 64.6 µM (inactive) in test [4]; 13.7 µM (inactive) in [5]; 126 µM (inactive) in test [6]. Besides, the GI50 in test [7] was 113 µM (inactive); in test [8] it was 105 µM (inactive); in [9], 81.8 µM (inactive); in test [10], 96.6 µM (inactive); in [11], 98.4 µM (inactive); in test [12], 68.2 µM (inactive). Also, the GI50 in test [13] was 107 µM (inactive); in test [14] it was 80.2 µM (inactive); in [15] it was 8.04 µM (inactive); in test [16] it was 89.9 µM (inactive); in [17], 106 µM (inactive); in test [18], 244 µM (inactive). For the same molecule, the GI50 is 91 µM (inactive) in [19] and 18 µM (inactive) in [20].

The values are drawn from ChEMBL document CHEMBL1201862, “PubChem BioAssay data set” (2004).
